{"source": "patent US20250009790A1", "about": "“METHODS FOR INDUCING VASODILATION” (THE FLOREY INSTITUTE OF NEUROSCIENCE AND MENTAL HEALTH, priority 2021, published 2025)", "key": {"rat mesenteric arteries": {"test_system": "rat mesenteric arteries", "assay": "Relaxation of isolated rat mesenteric arteries contracted with U46619 (myograph)", "format": "cell-based", "settings": "arteries contracted with thromboxane mimetic U46619", "source_text": "Functional in vitro protocols in isolated arteries. Human internal mammary artery and saphenous vein or a range of vessels from rats and mice (left main or anterior descending coronary arteries [250-400 μm internal diameter, i.d.], second order pulmonary interlobar arteries [300-600 μm i.d.], second or third order mesenteric arteries [200-350 μm i.d.], interlobar renal arteries [250-350 μm i.d.], saphenous arteries or veins [300-600 μm i.d.]), or the thoracic aorta were dissected and placed in ice-cold PSS-A with the following composition (mmol/L, mM): NaCl 119; KCl 4.69; MgSO4·7H2O 1.17; KH2PO4 1.18; glucose 5.5; NaHCO3 25; CaCl2·6H2O 2.5 saturated with carbogen (O2 95%; CO2 5%) at pH 7.4. In addition, rat middle cerebral (250-400 μm i.d.) and basilar (250-450 μm i.d.) arteries were used and for these vessels the PSS-A contained 1.5 mM CaCl2 to minimize the occurrence of spontaneous contractions.\nAfter isolation of vessels, ˜2 mm length segments of arteries were mounted in myograph chambers (Model 610M and 620M; Danish Myo Technology, Denmark) containing PSS-A at 37° C. for isometric force measurement as described previously. Contractile and relaxation responses using rat and mice isolated vessels were recorded with LabChart 7 and a PowerLab 4/30 A/D converter (AD Instruments Pty Ltd, Australia) while those including human isolated vessels were recorded with LabChart 8 (AD Instruments) and Myodaq and Myodata 2.01 (Maastricht University, Maastricht, Netherlands). To normalize the basal conditions, the vessels were passively stretched according to a normalization protocol and adjusted to a diameter setting of 90% of that determined for an equivalent transmural pressure of 100 mmHg (30 mmHg for veins). After allowing the tissues to equilibrate for 30 min, the arteries were exposed to a potassium depolarizing solution (124 mM K^+ replacing Na^+ in PSS; termed KPSS) and noradrenaline (10 μM) for 2 min (chemicals, their source and preparation are provided in the online supplement). A second exposure to KPSS solution (only) was used to provide a reference contraction.\nFive structurally dissimilar zinc delivery agents (zinc pyrithione, zinc disulfiram, clioquinol, Zn(DTSM) and zinc bis(histidinate)) were administered to rat mesenteric arteries according to the protocols above and the extent to which the arteries contracted were recorded. Acetylcholine and clioquinol were also administered and contractions recorded."}, "rat hind paw": {"test_system": "rat hind paw", "assay": "Cutaneous blood flow by laser Doppler flow in anaesthetized rat hind paw", "format": "in vivo", "settings": "Zn-bis-His 3, 10 and 30 mg/kg i.v., L-His 67 mg/kg i.v.", "experimental": "For in vivo measurements of cutaneous blood flow, an average of 3 s consecutive values calculated every 5 s were computed by LabChart software and the data were transformed as percentage of baseline (an average of 1.5 min recording before each dose). The area under the curve (AUC) for change from baseline values was calculated in Prism 8 software. MAP, hindquarter flow and conductance were taken immediately before and every 5 min after a single dose of treatment.\n(§1) Rats were anaesthetized with urethane (2 g/kg i.p.) after light anaesthesia with inhalation of 5% isoflurane. A laser Doppler probe (OxyFlo probe MSP300XP; ADI Blood Flowmeter) was placed on one hind paw (hair removed with depilatory cream). The animal was allowed to stabilize for 30 min to establish baseline parameters. A single i.v. dose of zinc bis(histidinate) was then administered at 3 mg/kg. The haemodynamic and cutaneous blood flow measurements by laser Doppler flow (LDF) were recorded continuously for 15 min. Then, the effects of 10 mg/kg and 30 mg/kg doses of zinc bis(histidinate) were tested."}, "CGRP receptors": {"biological_target": "T1, CGRP receptors (Rattus norvegicus, UniProt Q63118+Q9JJ74)", "T1 construct": "from tissue; host or cells: live anaesthetized rat, hind-paw skin vasculature (in vivo)", "T1 sequence (Q63118 24-464)": "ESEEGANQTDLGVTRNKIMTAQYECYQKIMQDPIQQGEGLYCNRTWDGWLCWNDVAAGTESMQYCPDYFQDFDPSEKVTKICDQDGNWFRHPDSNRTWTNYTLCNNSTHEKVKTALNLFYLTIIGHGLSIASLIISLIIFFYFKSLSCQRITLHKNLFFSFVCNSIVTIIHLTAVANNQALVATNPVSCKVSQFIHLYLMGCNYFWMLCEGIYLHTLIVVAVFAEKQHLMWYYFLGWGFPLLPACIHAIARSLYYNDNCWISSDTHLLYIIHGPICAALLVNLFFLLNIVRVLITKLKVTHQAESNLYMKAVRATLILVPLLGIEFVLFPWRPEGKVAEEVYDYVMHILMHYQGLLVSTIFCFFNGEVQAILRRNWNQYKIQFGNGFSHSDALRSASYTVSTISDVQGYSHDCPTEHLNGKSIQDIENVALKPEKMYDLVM", "T1 sequence (Q9JJ74 27-148)": "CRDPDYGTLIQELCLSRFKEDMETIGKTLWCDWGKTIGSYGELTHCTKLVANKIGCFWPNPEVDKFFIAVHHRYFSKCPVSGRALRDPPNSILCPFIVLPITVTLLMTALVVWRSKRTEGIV", "assay": "Zinc bis(histidinate)-induced cutaneous vasodilation after CGRP receptor antagonist pre-treatment (LDF)", "format": "in vivo", "settings": "rat hind paw; BIBN4096 3 mg/kg i.v. pre-treatment before Zn-bis-His 3, 10 and 30 mg/kg i.v.", "experimental": "as §1\nIn order to better understand the effect of zinc bis(histidinate) on cutaneous blood flow, vasodilation mediated by sensory nerves was blocked by pre-treatment of the rat with a CGRP (calcitonin gene-related peptide) receptor antagonist. A dose of 3 mg/kg BIBN4096 (olcegepant, a known CGRP receptor antagonist was administered intravenously by slow infusion over 10 minutes prior to subsequent administration of zinc bis(histidinate) and measurement of cutaneous blood flow by LDF as described in Example 2."}, "[1]": {"test_system": "sheep during cardiopulmonary bypass", "settings": "cited from earlier work"}, "[2]": {"test_system": "ovine model of cardiopulmonary bypass", "assay": "Ovine cardiopulmonary bypass with intra-operative zinc bis(histidinate) infusion", "format": "in vivo", "settings": "sheep on CPB (2 h); 3, 10 and 30 mg/kg infusion i.v. every 20 min", "source_text": "Two merino ewes (35-50 kg bodyweight) were housed in individual metabolic cages with access to 5 litres of water and 800 g of oaten chaff daily. The sheep underwent a preparatory surgical procedure under isoflurane anaesthesia for the implantation of a transit-time flow probe around the renal artery for measurement of renal blood flow. Fibre-optic probes were inserted into the cerebral cortex, renal cortex and renal medulla for measurement of tissue perfusion, pO2 and temperature (see Calzavacca et al., 2015, Am J Physiol Regul Integr Comp Physiol 308, R832-839). Catheters were inserted into the renal and jugular veins, carotid artery and bladder. The experiments were undertaken five days later. Intra-operative analgesics and antibiotics were administered as described previously (Lankadeva et al., 2019, Kidney Int 95 1338-1346; Evans et al., 2020, Am J Physiol Regul Integr Comp Physiol 318, R206-R213; Lankadeva et al., 2021, Acta Physiologica doi.org/10.1111/apha.13596, e13596). Mean arterial pressure, renal blood flow, cerebral cortical, renal cortical and renal medullary tissue perfusion, and temperature were continuously recorded across a series of experimental periods. Arterial, mixed venous and renal venous blood samples were collected every 30 min for blood oximetry and biochemistry (ABL systems 625, Copenhagen, Denmark).\nDuring the first 30 minutes, sheep were awake and unrestrained in their home metabolic cage. Anaesthesia was induced with sodium thiopental (15 mg/kg) and after endotracheal intubation, maintained on isoflurane (2.0%-2.5%) via an artificial ventilator prior to cardiopulmonary bypass or via a membrane oxygenator during cardiopulmonary bypass (FiO2: 60%). This FiO2 was chosen because it is standard during cardiac surgery at the inventors affiliated clinical centre. From the onset of anaesthesia, sheep received a maintenance infusion of compound sodium lactate (2 mL/kg/h; Baxter, NSW, Australia) for the entire duration of the experiment. Once stable anaesthesia was attained, a second experimental period (30 minutes) commenced. Cardiopulmonary bypass was then achieved at a target pump flow of 80 mL/kg/min, a target MAP of 65 mmHg, and a target body temperature of 34.5° C. The prefusion circuit was primed with 300-500 mL of blood from a donor animal, 1 g cefazolin (AFT Pharmaceuticals, NSW, Australia), 50 mL mannitol (20% wt/vol Osmitrol, Baxter, NSW, Australia) and 10 000 IU heparin, made up to 1.3 L with compound sodium lactate. Metaraminol (Metaraminol Montrose, Montrose Life Sciences, NSW, Australia) was administered in boluses of ˜0.25 mg (using a 0.5 mg/mL solution) only in cases where increasing pump flow was not sufficient to attain the target mean arterial pressure during cardiopulmonary bypass. Once stable cardiopulmonary bypass was attained, the sheep was maintained for ˜2 hours before starting a zinc bis(histidinate) infusion (18 mg/ml solution made freshly in 0.45% saline solution and filtered). For the first 20 min, volume equivalent to 3 mg/kg zinc bis(histidinate) was infused, followed by 20 minute of 10 mg/kg and then 20 min of 30 mg/kg zinc bis(histidinate). Plasma was collected every 30 min following the start of anaesthesia. Zinc levels in plasma were analysed using inductively coupled plasma mass spectroscopy (ICP-MS)."}, "[3]": {"assay": "Mean arterial pressure in anaesthetized rat (carotid artery catheter)", "format": "in vivo", "settings": "bolus i.v. 3, 10 and 30 mg/kg, measured for 10 minutes", "experimental": "In vivo blood pressure and flow measurement. Rats and mice were anaesthetized by inhalation of 5% isoflurane (in O2) followed by i.p. injection of pentobarbitone in rats (60 mg/kg; TROY Laboratories, NSW, Australia, maintained by top up doses of 10-20 mg/kg i.v.) or i.p. injection of urethane (2.5 g/kg; Sigma, maintained by top up doses of 0.05-0.1 g/kg i.v.). Animals were placed on a homeostatic blanket system to maintain body temperature at 37±1° C. Lignocaine (1% s.c.) was injected for placement of a tracheotomy tube (for mechanical ventilation), carotid artery and jugular vein catheters.\nAll drug treatments were administered via the jugular vein catheter. Pulsatile blood pressure, mean arterial pressure (MAP) and heart rate (HR; beats/min) were measured via the carotid artery catheter filled with heparinized (10 U/ml; Pfizer, NY, USA) saline 0.9% and connected to a pressure transducer (Argon Medical Devices, Athens, Greece) and the output was recorded with LabChart 7 and a Powerlab 8SP (AD Instruments). […]\nAn increase in cutaneous blood flow associated with vasorelaxation typically results in a decrease in arterial pressure. Mean arterial pressure in a rat after administration of zinc bis(histidine) (3 mg/kg, 10 mg/kg or 30 mg/kg) or L-histidine (67 mg/kg) was measured by a pressure transducer attached to a catheter inserted in carotid artery as described in Example 2."}, "[4]": {"settings": "listed as Zinc bis(histidinate)"}}, "note": "“Also recorded” adds a separate entry of the source."}
{"molecule": "zinc disulfiram", "values": [{"measurement": "Relaxation of rat mesenteric arteries", "setting": "rat mesenteric arteries", "value": "showed relaxation"}]}
{"molecule": "N[C@@H](Cc1c[nH]cn1)C(=O)O", "note": "[L-histidine, reference compound]", "values": [{"measurement": "Cutaneous blood flow (laser Doppler flux)", "setting": "rat hind paw", "value": "did result in the same increase"}, {"measurement": "Cutaneous blood flow (laser Doppler flux)", "setting": "rat hind paw; listed as L-His", "value": "did not cause an increase in cutaneous blood flow"}]}
{"molecule": "NCCCC[C@H](NC(=O)[C@@H](Cc1cc(Br)c(O)c(Br)c1)NC(=O)N1CCC(N2Cc3ccccc3NC2=O)CC1)C(=O)N1CCN(c2ccncc2)CC1", "note": "[BIBN4096, olcegepant]", "values": [{"measurement": "Effect on zinc bis(histidinate)-induced vasodilation (area under the vasodilation curve, LDF)", "setting": "CGRP receptors", "value": "reduction in vasodilation; also recorded: attenuated the effect"}]}
{"molecule": "Oc1c(I)cc(Cl)c2cccnc12", "note": "[clioquinol]", "values": [{"measurement": "Relaxation of rat mesenteric arteries", "setting": "rat mesenteric arteries", "value": "showed relaxation"}]}
{"molecule": "N[C@@H](Cc1c[nH]cn1)C(=O)O", "note": "[histidine]", "values": [{"measurement": "Relaxation of rat mesenteric arteries", "setting": "rat mesenteric arteries", "value": "did not provide the same relaxation; also recorded: little relaxation"}]}
{"molecule": "CNC([S-])=NN=C(C)C(C)=NN=C([S-])NC.[Zn+2]", "note": "[Zn(DTSM)]", "values": [{"measurement": "Relaxation of rat mesenteric arteries", "setting": "rat mesenteric arteries", "value": "showed relaxation"}]}
{"molecule": "zinc pyrithione", "values": [{"measurement": "Relaxation of rat mesenteric arteries", "setting": "rat mesenteric arteries", "value": "showed relaxation"}]}
{"molecule": "[Zn]", "note": "[zinc]", "values": [{"measurement": "Relaxation of rat mesenteric arteries", "setting": "rat mesenteric arteries", "value": "minimal effects; also recorded: little relaxation"}]}
{"molecule": "C[C@H](N)[C@H](O)c1cccc(O)c1", "note": "[Metaraminol]", "values": [{"measurement": "Systemic vascular conductance", "setting": "[1]", "value": "increased systemic vascular conductance"}]}
{"molecule": "zinc bis(histidinate)", "values": [{"measurement": "Cerebral cortical microcirculatory perfusion", "setting": "[2]", "value": "rescued"}, {"measurement": "Renal blood flow", "setting": "[2]", "value": "dose-dependent improvement"}, {"measurement": "Renal cortical microcirculatory perfusion", "setting": "[2]", "value": "rescued"}, {"measurement": "Renal medullary microcirculatory perfusion", "setting": "[2]", "value": "rescued"}, {"measurement": "Renal oxygen delivery", "setting": "[2]", "value": "dose-dependent improvement"}, {"measurement": "Renal vascular resistance", "setting": "[2]", "value": "dose-dependent improvement"}, {"measurement": "Systemic mean arterial pressure", "setting": "[2]", "value": "without compromising systemic mean arterial pressure"}, {"measurement": "Cutaneous blood flow (laser Doppler flux)", "setting": "rat hind paw", "value": "increased cutaneous blood flow"}, {"measurement": "Cutaneous blood flow (laser Doppler flux)", "setting": "rat hind paw; [4]", "value": "caused an increase in cutaneous blood flow"}, {"measurement": "Cutaneous blood flow (laser Doppler flux)", "setting": "rat hind paw; listed as zinc bis(histidine)", "value": "increased blood flow"}, {"measurement": "Mean arterial pressure", "setting": "[3]", "value": "expected decrease in arterial pressure was not observed"}, {"measurement": "Mean arterial pressure", "setting": "[3]; [4]", "value": "does not change mean arterial pressure"}, {"measurement": "Relaxation of rat mesenteric arteries", "setting": "rat mesenteric arteries", "value": "showed relaxation; also recorded: greater relaxation"}, {"measurement": "Relaxation of rat mesenteric arteries", "setting": "rat mesenteric arteries; listed as zinc-bis-histidinate", "value": "dependent on the concentration"}]}
